Experimental data reported in ChEMBL document CHEMBL2417425, “Design and synthesis of positional isomers of 5 and 6-bromo-1-[(phenyl)sulfonyl]-2-[(4-nitrophenoxy)methyl]-1H-benzimidazoles as possible antimicrobial and antitubercular agents” (2013).
≈ marks a conversion by molar mass, not a printed value.

Experiments:
Format in all cases: functional
Rhizopus = test: Antifungal activity against Rhizopus sp. assessed as growth inhibition by serial dilution method
Aspergillus flavus = test: Antifungal activity against Aspergillus flavus assessed as growth inhibition by serial dilution method
Staphylococcus aureus [1] = test: Antibacterial activity against Staphylococcus aureus assessed as growth inhibition by serial dilution method
Klebsiella pneumoniae [2] = test: Antibacterial activity against Klebsiella pneumoniae assessed as growth inhibition by serial dilution method
[3] = test system: Mycobacterium tuberculosis; test: Antimycobacterial activity against Mycobacterium tuberculosis H37Rv assessed as growth inhibition at 1 to 100 ug/mL by resazurin assay; details: for MIC: Mycobacterium tuberculosis, H37Rv
[4] = test system: Mycolicibacterium smegmatis; test: Antimycobacterial activity against Mycobacterium smegmatis ATCC 19420 assessed as growth inhibition at 1 to 100 ug/mL by resazurin assay
Candida albicans = test: Antifungal activity against Candida albicans assessed as growth inhibition by serial dilution method
[5] = test system: Mycolicibacterium fortuitum; test: Antimycobacterial activity against Mycobacterium fortuitum ATCC 19542 assessed as growth inhibition at 1 to 100 ug/mL by resazurin assay
Escherichia coli = test: Antibacterial activity against Escherichia coli assessed as growth inhibition by serial dilution method
[6] = test system: Mycobacterium tuberculosis; test: Antimycobacterial activity against Mycobacterium tuberculosis H37Rv assessed as growth inhibition at 0.3125 to 5 ug/mL by resazurin assay
[7] = test system: Mycolicibacterium smegmatis; test: Antimycobacterial activity against Mycobacterium smegmatis ATCC 19420 assessed as growth inhibition at 0.3125 to 5 ug/mL by resazurin assay
[8] = test system: Mycolicibacterium fortuitum; test: Antimycobacterial activity against Mycobacterium fortuitum ATCC 19542 assessed as growth inhibition at 0.3125 to 5 ug/mL by resazurin assay
Klebsiella pneumoniae [9] = test: Potency index, ratio of ciprofloxacin MIC to compound MIC for Klebsiella pneumoniae
Staphylococcus aureus [10] = test: Potency index, ratio of ciprofloxacin MIC to compound MIC for Staphylococcus aureus

Compound | MIC (Rhizopus) [mg/L] | MIC (Aspergillus flavus) [mg/L] | MIC (Staphylococcus aureus [1]) [mg/L] | MIC (Klebsiella pneumoniae [2]) [mg/L] | growth inhibition (GI) [3] [%] | MIC [3] [mg/L] | MIC [4] [mg/L] | MIC (Candida albicans) [mg/L] | MIC [5] [mg/L] | MIC (Escherichia coli) [mg/L] | MIC [6] [mg/L] | MIC [7] [mg/L] | MIC [8] [mg/L] | PI (Klebsiella pneumoniae [9]) | PI (Staphylococcus aureus [10])
O=[N+]([O-])c1ccc(OCc2nc3ccc(Br)cc3n2S(=O)(=O)c2ccccc2Cl)cc1 | > 256 | > 256 | 128 (≈ 245 µM) | 256 (≈ 490 µM) | 0 | > 100 | > 100 | 128 (≈ 245 µM) | > 100 | > 256 |  |  |  |  | 
COc1ccc(S(=O)(=O)n2c(COc3ccc([N+](=O)[O-])cc3)nc3ccc(Br)cc32)c(OC)c1 | 128 (≈ 233 µM) | 256 (≈ 467 µM) | > 256 | 128 (≈ 233 µM) | <90 | 10 (≈ 18.2 µM) | 10 (≈ 18.2 µM) | > 256 | > 100 | 256 (≈ 467 µM) | 2.5 (≈ 4.56 µM) | 2.5 (≈ 4.56 µM) |  |  | 
Cc1cccc(S(=O)(=O)n2c(COc3ccc([N+](=O)[O-])cc3)nc3ccc(Br)cc32)c1 | > 256 | > 256 | > 256 | > 256 | <90 | > 100 | 10 (≈ 19.9 µM) | 256 (≈ 510 µM) | > 100 | 128 (≈ 255 µM) | 5 (≈ 9.95 µM) |  |  |  | 
Nc1ccc(OCc2nc3cc(Br)ccc3[nH]2)cc1 | 256 (≈ 805 µM) | 128 (≈ 402 µM) | 64 (≈ 201 µM) | 128 (≈ 402 µM) | <90 | 10 (≈ 31.4 µM) | 10 (≈ 31.4 µM) | 64 (≈ 201 µM) | > 100 | 128 (≈ 402 µM) | 5 (≈ 15.7 µM) | 10 (≈ 31.4 µM) |  |  | 
COc1ccc(OC)c(S(=O)(=O)n2c(COc3ccc([N+](=O)[O-])cc3)nc3cc(Br)ccc32)c1 | 256 (≈ 467 µM) | 64 (≈ 117 µM) | 128 (≈ 233 µM) | 256 (≈ 467 µM) | 90 | 1 (≈ 1.82 µM) | 1 (≈ 1.82 µM) | 128 (≈ 233 µM) | 10 (≈ 18.2 µM) | 128 (≈ 233 µM) | 1.25 (≈ 2.28 µM) | 1.25 (≈ 2.28 µM) | 1.25 (≈ 2.28 µM) |  | 
O=[N+]([O-])c1ccc(OCc2nc3cc(Br)ccc3n2S(=O)(=O)c2ccc(Cl)cc2Cl)cc1 | 128 (≈ 230 µM) | 64 (≈ 115 µM) | 8 (≈ 14.4 µM) | 64 (≈ 115 µM) | <90 | > 100 | 10 (≈ 17.9 µM) | 128 (≈ 230 µM) | > 100 | 4 (≈ 7.18 µM) | 5 (≈ 8.97 µM) |  |  |  | 
O=[N+]([O-])c1ccc(OCc2nc3cc(Br)ccc3n2S(=O)(=O)c2cc(Cl)ccc2Cl)cc1 | 16 (≈ 28.7 µM) | 32 (≈ 57.4 µM) | 8 (≈ 14.4 µM) | 8 (≈ 14.4 µM) | 90 | > 100 | 10 (≈ 17.9 µM) | 64 (≈ 115 µM) | 10 (≈ 17.9 µM) | 4 (≈ 7.18 µM) | 1.25 (≈ 2.24 µM) |  | 10 (≈ 17.9 µM) | 1 | 
O=[N+]([O-])c1ccc(OCc2nc3cc(Br)ccc3n2S(=O)(=O)c2ccccc2[N+](=O)[O-])cc1 | 16 (≈ 30 µM) | 8 (≈ 15 µM) | 4 (≈ 7.5 µM) | 4 (≈ 7.5 µM) | 95 | 1 (≈ 1.88 µM) | 1 (≈ 1.88 µM) | 16 (≈ 30 µM) | 10 (≈ 18.8 µM) | 32 (≈ 60 µM) | 0.625 (≈ 1.17 µM) | 1.25 (≈ 2.34 µM) | 10 (≈ 18.8 µM) | 2 | 1
C[C@@H]1[C@H](O)[C@@H](C)/C=C/C=C/C=C/C=C/C=C/C=C/C=C/[C@H](O[C@@H]2O[C@H](C)[C@@H](O)[C@H](N)[C@@H]2O)C[C@@H]2O[C@](O)(C[C@@H](O)C[C@@H](O)[C@H](O)CC[C@@H](O)C[C@@H](O)CC(=O)O[C@H]1C)C[C@H](O)[C@H]2C(=O)O [AMPHOTERICIN B] | 16 (≈ 17.3 µM) | 8 (≈ 8.66 µM) |  |  |  |  |  | 8 (≈ 8.66 µM) |  |  |  |  |  |  | 
O=C(O)c1cn(C2CC2)c2cc(N3CCNCC3)c(F)cc2c1=O [CIPROFLOXACIN] |  |  | 8 (≈ 24.1 µM) | 16 (≈ 48.3 µM) |  |  |  |  |  |  |  |  |  |  | 
NNC(=O)c1ccncc1 [ISONIAZID] |  |  |  |  | 95 | 0.7 (≈ 5.1 µM) | 50 (≈ 365 µM) |  | 12.5 (≈ 91.1 µM) |  | 0.7 (≈ 5.1 µM) | 50 (≈ 365 µM) | 12.5 (≈ 91.1 µM) |  | 
CO[C@H]1/C=C/O[C@@]2(C)Oc3c(C)c(O)c4c(O)c(c(/C=N/N5CCN(C)CC5)c(O)c4c3C2=O)NC(=O)/C(C)=C\C=C\[C@H](C)[C@H](O)[C@@H](C)[C@@H](O)[C@@H](C)[C@H](OC(C)=O)[C@@H]1C [RIFAMPIN] |  |  |  |  | 95 | 0.5 (≈ 0.608 µM) | 1.5 (≈ 1.82 µM) |  | 1.5 (≈ 1.82 µM) |  | 0.5 (≈ 0.608 µM) | 1.5 (≈ 1.82 µM) | 1.5 (≈ 1.82 µM) |  | 
